Laboratory results: patent US12202818B2, “Compounds and methods for CD73 modulation and indications therefor” (Opna Bio SA, priority 2020, dated 2025)

How the values were obtained:
human CD73 = target: T1, human CD73 (Homo sapiens, UniProt P21589); experiment: Inhibitor activity against CD73 in cell based assay (CD73 expressing CHO-K1 cells); conditions: CHO-K1 cells expressing human CD73, 150 μM AMP, 4 hours of incubation; read-out: CHO-K1 CELL_VARIANT: CD73 IC50
T1 construct: expressed in transfected cells
T1 sequence (P21589 27-549): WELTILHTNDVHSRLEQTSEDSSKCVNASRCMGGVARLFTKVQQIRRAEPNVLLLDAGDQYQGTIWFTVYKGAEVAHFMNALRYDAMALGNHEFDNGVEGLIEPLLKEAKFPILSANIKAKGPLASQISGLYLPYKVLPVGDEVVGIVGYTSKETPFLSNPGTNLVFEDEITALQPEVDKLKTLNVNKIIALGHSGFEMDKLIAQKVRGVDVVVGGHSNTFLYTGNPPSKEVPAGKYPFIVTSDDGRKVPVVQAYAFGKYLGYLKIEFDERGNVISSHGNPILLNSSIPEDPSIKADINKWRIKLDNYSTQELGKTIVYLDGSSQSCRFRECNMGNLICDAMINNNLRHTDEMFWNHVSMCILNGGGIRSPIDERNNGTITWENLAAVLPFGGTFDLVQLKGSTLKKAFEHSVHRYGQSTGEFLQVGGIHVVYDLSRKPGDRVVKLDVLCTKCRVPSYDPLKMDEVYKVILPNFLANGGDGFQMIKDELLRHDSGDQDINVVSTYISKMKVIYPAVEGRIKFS
Method in brief: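 AMP (150 μM) was added alongside 8 titrated compound doses (maximum 10 μM, 1:3 steps) to CHO-K1 cells stably expressing human CD73. After 4 h, supernatant AMP was measured indirectly with CellTiter-Glo 2.0 plus 1 μM ATP (30 min, RT). % inhibition versus high and low controls was fitted nonlinearly for IC50.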

[1] = target: T2, Human CD73 (amino acid residues 27-549) (Homo sapiens, UniProt P21589); experiment: CD73 enzymatic assay (luciferase-based indirect assay, CellTiter-Glo); format: biochemical; conditions: 0.4 nM CD73, 150 μM AMP, 1 hour at room temperature
T2 construct: Human CD73 (amino acid residues 27-549); His tag (N); made in house; host or cells: E. coli
T2 sequence (P21589 27-549): T1 sequence (P21589 27-549)
Method in brief: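 Luciferase-coupled readout: AMP left after CD73 turnover suppresses CellTiter-Glo signal (1 μM ATP final, 30 min RT). Reaction beforehand: 150 μM AMP, 0.4 nM E. coli-made His-tagged CD73 residues 27-549, test compound, HEPES pH 7.4 with Tween-20, 1 h RT. % inhibition fitted nonlinearly for IC50.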

O=c1c(Cl)c(N2CC[C@@H](Oc3ncccc3NC3CCC(F)(F)CC3)C2)cnn1CCO [P-0102, (R)-4-chloro-5-(3-((3-((4,4-difluorocyclohexyl)amino)pyridin-2-yl)oxy)pyrrolidin-1-yl)-2-(2-hydroxyethyl)pyridazin-3(2H)-one]
IC50 (human CD73): 0.001 to 10 µM
IC50 [1]: 0.001 to 10 µM

O=c1c(Cl)c(N2CC[C@@H](Oc3cc(N4[C@@H]5CC[C@H]4CC(F)(F)C5)ccn3)C2)cnn1CCO [P-0107, 4-chloro-5-((R)-3-((4-((1R,5S)-3,3-difluoro-8-azabicyclo[3.2.1]octan-8-yl)pyridin-2-yl)oxy)pyrrolidin-1-yl)-2-(2-hydroxyethyl)pyridazin-3(2H)-one]
IC50 (human CD73): 10 to 100 µM
IC50 [1]: 0.001 to 10 µM

Cc1nn(C)c(C)c1-c1cc(O[C@H]2CN(c3cn[nH]c(=O)c3Cl)C[C@@H]2F)ccn1 [P-0121, 4-chloro-5-((3S,4S)-3-fluoro-4-((2-(1,3,5-trimethyl-1H-pyrazol-4-yl)pyridin-4-yl)oxy)pyrrolidin-1-yl)pyridazin-3(2H)-one]
IC50 (human CD73): 0.001 to 10 µM
IC50 [1]: 0.001 to 10 µM

CC(=O)Nc1ccc(-c2ccnc(O[C@@H]3CCN(c4cn[nH]c(=O)c4Cl)C3)c2)c(F)c1 [P-0213, (R)-N-(4-(2-((1-(5-chloro-6-oxo-1,6-dihydropyridazin-4-yl)pyrrolidin-3-yl)oxy)pyridin-4-yl)-3-fluorophenyl)acetamide]
IC50 (human CD73): 0.001 to 10 µM
IC50 [1]: 0.001 to 10 µM

Cc1nn(CC(O)CCCl)c(C)c1-c1ccnc(O[C@@H]2CCN(c3cnn(CCO)c(=O)c3Cl)C2)c1 (stereo partly drawn) [P-0064, 4-chloro-5-((3R)-3-((4-(1-(4-chloro-2-hydroxybutyl)-3,5-dimethyl-1H-pyrazol-4-yl)pyridin-2-yl)oxy)pyrrolidin-1-yl)-2-(2-hydroxyethyl)pyridazin-3(2H)-one]
IC50 (human CD73): 0.001 to 10 µM
IC50 [1]: 0.001 to 10 µM

Cc1nn(C)c(C)c1-c1ccnc(O[C@@H]2CCN(c3cnn(CCO)c(=O)c3Cl)C2)c1 [P-0143, (R)-4-chloro-2-(2-hydroxyethyl)-5-(3-((4-(1,3,5-trimethyl-1H-pyrazol-4-yl)pyridin-2-yl)oxy)pyrrolidin-1-yl)pyridazin-3(2H)-one]
IC50 (human CD73): 0.001 to 10 µM
IC50 [1]: 0.001 to 10 µM

CN1CCC(c2ccnc(O[C@@H]3CCN(c4cn[nH]c(=O)c4Cl)C3)c2)CC1 [P-0008, (R)-4-chloro-5-(3-((4-(1-methylpiperidin-4-yl)pyridin-2-yl)oxy)pyrrolidin-1-yl)pyridazin-3(2H)-one]
IC50 (human CD73): 0.001 to 10 µM
IC50 [1]: 0.001 to 10 µM

Cc1nn(CC2(O)COC2)c(C)c1-c1ccnc(O[C@@H]2CCN(c3cn[nH]c(=O)c3Cl)C2)c1 [P-0065, (R)-4-chloro-5-(3-((4-(1-((3-hydroxyoxetan-3-yl)methyl)-3,5-dimethyl-1H-pyrazol-4-yl)pyridin-2-yl)oxy)pyrrolidin-1-yl)pyridazin-3(2H)-one]
IC50 (human CD73): 0.001 to 10 µM
IC50 [1]: 0.001 to 10 µM

O=c1[nH]ncc(N2CC[C@@H](Oc3cc(C4=CCOCC4)ccn3)C2)c1Cl [P-0078, (R)-4-chloro-5-(3-((4-(3,6-dihydro-2H-pyran-4-yl)pyridin-2-yl)oxy)pyrrolidin-1-yl)pyridazin-3(2H)-one]
IC50 (human CD73): 0.001 to 10 µM
IC50 [1]: 0.001 to 10 µM

Cc1nn(CCO)c(C)c1-c1cc(F)nc(O[C@@H]2CCN(c3cn[nH]c(=O)c3Cl)C2)c1 [P-0192, (R)-4-chloro-5-(3-((6-fluoro-4-(1-(2-hydroxyethyl)-3,5-dimethyl-1H-pyrazol-4-yl)pyridin-2-yl)oxy)pyrrolidin-1-yl)pyridazin-3(2H)-one]
IC50 (human CD73): 0.001 to 10 µM
IC50 [1]: 0.001 to 10 µM

N#CC1CCC(c2ccnc(O[C@@H]3CCN(c4cnn(CCO)c(=O)c4Cl)C3)c2)CC1 (stereo partly drawn) [P-0046, (R)-4-(2-((1-(5-chloro-1-(2-hydroxyethyl)-6-oxo-1,6-dihydropyridazin-4-yl)pyrrolidin-3-yl)oxy)pyridin-4-yl)cyclohexane-1-carbonitrile]
IC50 (human CD73): 0.001 to 10 µM
IC50 [1]: 0.001 to 10 µM

COc1ccc2c(c1)cc(-c1ccnc(O[C@@H]3CCN(c4cn[nH]c(=O)c4Cl)C3)c1)n2C [P-0108, (R)-4-chloro-5-(3-((4-(5-methoxy-1-methyl-1H-indol-2-yl)pyridin-2-yl)oxy)pyrrolidin-1-yl)pyridazin-3(2H)-one]
IC50 (human CD73): 0.001 to 10 µM
IC50 [1]: 0.001 to 10 µM

COC(=O)C1CC(Cn2nc(C)c(-c3ccnc(O[C@@H]4CCN(c5cn[nH]c(=O)c5Cl)C4)c3)c2C)C1 (stereo partly drawn) [P-0055, methyl (R)-3-((4-(2-((1-(5-chloro-6-oxo-1,6-dihydropyridazin-4-yl)pyrrolidin-3-yl)oxy)pyridin-4-yl)-3,5-dimethyl-1H-pyrazol-1-yl)methyl)cyclobutane-1-carboxylate]
IC50 (human CD73): 0.001 to 10 µM
IC50 [1]: 0.001 to 10 µM

Cc1cc(S(=O)(=O)NC2CC2)cc(F)c1-c1ccnc(O[C@@H]2CCN(c3cn[nH]c(=O)c3Cl)C2)c1 [P-0224, (R)-4-(2-((1-(5-chloro-6-oxo-1,6-dihydropyridazin-4-yl)pyrrolidin-3-yl)oxy)pyridin-4-yl)-N-cyclopropyl-3-fluoro-5-methylbenzenesulfonamide]
IC50 (human CD73): 0.001 to 10 µM
IC50 [1]: 0.001 to 10 µM

CC(C)c1cc(Nc2cccnc2O[C@@H]2CCN(c3cn[nH]c(=O)c3Cl)C2)n(C)n1 [P-0109, (R)-4-chloro-5-(3-((3-((3-isopropyl-1-methyl-1H-pyrazol-5-yl)amino)pyridin-2-yl)oxy)pyrrolidin-1-yl)pyridazin-3(2H)-one]
IC50 (human CD73): 0.001 to 10 µM
IC50 [1]: 0.001 to 10 µM

Cc1nn(C)c(C)c1-c1cc(O[C@@H]2CCN(c3cnn(CCO)c(=O)c3Cl)C2)ncc1F [P-0115, (R)-4-chloro-5-(3-((5-fluoro-4-(1,3,5-trimethyl-1H-pyrazol-4-yl)pyridin-2-yl)oxy)pyrrolidin-1-yl)-2-(2-hydroxyethyl)pyridazin-3(2H)-one]
IC50 (human CD73): 0.001 to 10 µM
IC50 [1]: 0.001 to 10 µM

Cc1nn(CC(C)(C)O)c(C)c1-c1cc(O[C@@H]2CCN(c3cnn(CCO)c(=O)c3Cl)C2)ncn1 [P-0014, (R)-4-chloro-5-(3-((6-(1-(2-hydroxy-2-methylpropyl)-3,5-dimethyl-1H-pyrazol-4-yl)pyrimidin-4-yl)oxy)pyrrolidin-1-yl)-2-(2-hydroxyethyl)pyridazin-3(2H)-one]
IC50 (human CD73): 0.001 to 10 µM
IC50 [1]: 0.001 to 10 µM

O=c1[nH]ncc(N2CC[C@@H](Oc3cc(N4CCC5(CC4)COC5)ccn3)C2)c1Cl [P-0082, (R)-5-(3-((4-(2-oxa-7-azaspiro[3.5]nonan-7-yl)pyridin-2-yl)oxy)pyrrolidin-1-yl)-4-chloropyridazin-3(2H)-one]
IC50 (human CD73): 0.001 to 10 µM
IC50 [1]: 0.001 to 10 µM

Cc1nn(C)c(C)c1-c1ccnc(O[C@@H]2CCN(c3cn[nH]c(=O)c3)C2)c1 [P-0113, (R)-5-(3-((4-(1,3,5-trimethyl-1H-pyrazol-4-yl)pyridin-2-yl)oxy)pyrrolidin-1-yl)pyridazin-3(2H)-one]
IC50 (human CD73): 0.001 to 10 µM
IC50 [1]: 0.001 to 10 µM

O=C(Nc1ccc(-c2ccnc(O[C@@H]3CCN(c4cn[nH]c(=O)c4Cl)C3)c2)c(F)c1)NC1CC1 [P-0211, (R)-1-(4-(2-((1-(5-chloro-6-oxo-1,6-dihydropyridazin-4-yl)pyrrolidin-3-yl)oxy)pyridin-4-yl)-3-fluorophenyl)-3-cyclopropylurea]
IC50 (human CD73): 0.001 to 10 µM
IC50 [1]: 0.001 to 10 µM

Cc1nn(C(CO)CCl)c(C)c1-c1ccnc(O[C@@H]2CCN(c3cn[nH]c(=O)c3Cl)C2)c1 (stereo partly drawn) [P-0069, 4-chloro-5-((3R)-3-((4-(1-(1-chloro-3-hydroxypropan-2-yl)-3,5-dimethyl-1H-pyrazol-4-yl)pyridin-2-yl)oxy)pyrrolidin-1-yl)pyridazin-3(2H)-one]
IC50 (human CD73): 0.001 to 10 µM
IC50 [1]: 0.001 to 10 µM

Cc1nn(C)c(C)c1-c1ccnc(O[C@@H]2CCN(c3cnn(CC(C)O)c(=O)c3Cl)C2)c1 (stereo partly drawn) [P-0126, 4-chloro-2-(2-hydroxypropyl)-5-((R)-3-((4-(1,3,5-trimethyl-1H-pyrazol-4-yl)pyridin-2-yl)oxy)pyrrolidin-1-yl)pyridazin-3(2H)-one]
IC50 (human CD73): 0.001 to 10 µM
IC50 [1]: 0.001 to 10 µM

Cc1nn(CC(C)(C)O)c(C)c1-c1ccnc(O[C@@H]2CCN(c3cnn(CCO)c(=O)c3Cl)C2)c1 [P-0017, (R)-4-chloro-5-(3-((4-(1-(2-hydroxy-2-methylpropyl)-3,5-dimethyl-1H-pyrazol-4-yl)pyridin-2-yl)oxy)pyrrolidin-1-yl)-2-(2-hydroxyethyl)pyridazin-3(2H)-one]
IC50 (human CD73): 0.001 to 10 µM
IC50 [1]: 0.001 to 10 µM

Cc1noc(C)c1-c1cc(O[C@H]2CN(c3cnn(CCO)c(=O)c3Cl)C[C@@H]2F)ccn1 [P-0120, 4-chloro-5-((3S,4S)-3-((2-(3,5-dimethylisoxazol-4-yl)pyridin-4-yl)oxy)-4-fluoropyrrolidin-1-yl)-2-(2-hydroxyethyl)pyridazin-3(2H)-one]
IC50 (human CD73): 0.001 to 10 µM
IC50 [1]: 0.001 to 10 µM
